Experiments:
Assay type in all cases: cell-based
[1] = target: T1, OR10J5 olfactory receptor (Homo sapiens, UniProt Q8NHC4); assay: Dose-response confirmation of enhancer candidates, alone and with EC20 LYRAL®; conditions: response to LYRAL® raised beyond EC20 without measurable intrinsic activity
T1 construct: Flag; Rho (rhodopsin-derived tag); expressed in transfected cells
T1 sequence (Q8NHC4 1-309): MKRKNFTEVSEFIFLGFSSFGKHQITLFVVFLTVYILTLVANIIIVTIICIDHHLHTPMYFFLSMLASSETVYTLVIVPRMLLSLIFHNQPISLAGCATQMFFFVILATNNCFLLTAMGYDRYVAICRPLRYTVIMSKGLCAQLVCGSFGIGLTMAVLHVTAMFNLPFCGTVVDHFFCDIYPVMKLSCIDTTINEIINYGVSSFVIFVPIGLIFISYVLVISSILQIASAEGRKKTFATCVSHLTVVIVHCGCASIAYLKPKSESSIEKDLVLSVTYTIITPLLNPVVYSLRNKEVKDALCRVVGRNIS
Protocol: (§1) A dose response curve showing the activation of OR10J5 in response to the floral muguet compound 3-(4-hydroxy-4-methylpentyl)cyclohex-3-ene-1-carbaldehyde, 4-(4-hydroxy-4-methylpentyl)cyclohex-3-ene-1-carbaldehyde or a mixture thereof (sold under the tradename LYRAL®, hereinafter referred to as “LYRAL®”) is shown in FIG. 1. Using a cell-based assay, OR10J5 activity was tested in a HEK293T cell line wherein the endogenous chaperone RTP1 gene has been activated and the odorant receptor chaperone was expressed according to the methods disclosed in International Patent Application Publication No. WO2016/201153 A1. The Flag-Rho-tagged receptor was co-transfected with the olfactory canonical G-protein Golf and was exposed to a binary mixture of a single concentration of LYRAL® and a test compound.
(§2) A library of volatile compounds was used to create binary mixtures of each compound with LYRAL® at approximately EC20, a concentration eliciting only approximately 20% of full activity level of OR10J5 by itself. An activation cell-based assay was used for the initial enhancer candidate identification as disclosed in WO2019122236. Single binary mixture-induced receptor activity was detected by measuring the cAMP increase in the cytosol using an HTRF (Homogenous Time-Resolved Fluorescence unit) based kit (CisBio, cAMP dynamic 2 kit, 62AM4PEJ).
The 37 candidates remaining in Table 2 were identified and were tested in two parallel dose-response experiments to confirm the true enhancement properties of the potential candidates. First, a dose-response of each individual candidate was performed to determine if it was an agonist by itself. Second, the same candidate dose-response curve in the presence of EC20 LYRAL® concentration (generating 20% activity on OR10J5) was assessed for activity level increase.

OR10J5 [2] = target: T2, OR10J5 (Homo sapiens, UniProt Q8NHC4); assay: LYRAL® dose-response with serial enhancer concentrations, allosteric EC50 shift model; conditions: for α (cooperativity factor): enhancer 0 to 600 μM, allosteric EC50 shift equation (Prism7), α>1 indicates positive allosteric modulation; for Kb: read-out: KB (equilibrium dissociation constant of the enhancer)
T2 construct: Flag; Rho (rhodopsin-derived tag); expressed in transfected cells
T2 sequence (Q8NHC4 1-309): T1 sequence (Q8NHC4 1-309)
Protocol: Functional dose-response experiments were performed to reveal the allosteric nature of the interaction between 3-(1,3-benzodioxol-5-yl)-2-methylpropanal, 3-(4-methylcyclohex-3-en-1-yl)butanal, 2,6-dimethylhept-5-enal and heptanal and OR10J5. The level of enhancement of OR10J5's activation was evaluated at distinct concentrations of each enhancer. Using the same cell-based assay described earlier, dose response curves of OR10J5 to LYRAL® in the presence of serial concentrations of the enhancers spanning from 0 to 600 μM were performed, see FIG. 5. The curves were obtained by applying the simplified Allosteric EC50 shift effect equation (available in Prism7) derived from the ternary complex interaction model. The enhancement levels recorded were not linearly dependent on the concentration of the enhancer, and the following key parameters values for α (the cooperativity factor) and KB (the equilibrium dissociation constant of the enhancer) were obtained from the model for each enhancer: 3-(1,3-benzodioxol-5-yl)-2-methylpropanal, α=6.3 and KB=10 μM; 3-(4-methylcyclohex-3-en-1-yl)butanal, α=7.5 and KB=15 μM; 2,6-dimethylhept-5-enal, α=4.1 and KB=16 μM; and heptanal; α=3.2 and KB=51 μM. α>1 is indicative of positive allosteric modulation.

OR10J5 [3] = target: T2, OR10J5; assay: (+−)-2,5-dimethyl-2-indanmethanol dose-response with a steady concentration of test compound
Protocol: OR10J5 activity enhancement was tested with an additional agonist and with one of the test compounds and conditions described in the Examples above. Dose response curves to (+−)-2,5-dimethyl-2-indanmethanol was obtained in the presence of a steady concentration of the test compound and compared to a dose-response curve of the agonist alone. The resulting enhancement was quantified by means of EC50-fold shift (potency increase) and the efficacy span ratio (efficacy increase) as described above.

[4] = target: T1, OR10J5 olfactory receptor; assay: Inhibition of LYRAL® (EC80)-induced receptor activity, screen and dose-response; conditions: dose-response in the presence of EC80 LYRAL®
Protocol: Using the same cell-based assay described herein, OR10J5 activity inhibition was tested with binary mixtures of LYRAL® and a test compound. Volatile compounds were used to create binary mixtures of each compound with LYRAL® at approximately EC80, a concentration eliciting approximately 80% of full activity level of OR10J5 by itself. An activation cell-based assay was used for the initial inhibitor candidate identification as disclosed in WO2019101813.
The binary mixtures were created by mixing a LYRAL® stock solution with a stock solution of each test compound to a final concentration XXX and 300 μM, respectively. Stock solutions were made of compounds dissolved in pure DMSO. Each mixture was presented to a cell line expressing the OR10J5 olfactory receptor. Similar to the enhancement screening conditions, the final concentration of DMSO in each binary mixture was 0.1%, and had no visible effect on the cells. The resulting activation was measured and compared to LYRAL® alone (defining the activity baseline of the assay, ˜EC80). […] The quality of the HTS process was determined and the window (activity range between EC80 and the DMSO baseline) variability and signal reliability were assessed by calculating the Z′ value of each plate.
Candidate inhibitors identified were tested in a dose-response inhibition experiments to confirm the inhibition properties of the potential candidates. The dose-response curve in the presence of EC80 LYRAL® concentration (generating 80% activity on OR10J5) was assessed for dose-dependent activity level decrease. […] Both potency and efficacy of the confirmed inhibitors were evaluated by calculating their half-maximal inhibition concentration (IC50) relative to EC80 LYRAL and the amount of inhibition (Span), respectively. The IC50 values indicate the inhibition level with respect to the potency. The Span values indicate the inhibition level with respect to the inhibition efficacy. The IC50 values are used to rank order the compounds from strongest to weakest inhibitors of OR10J5 (FIG. 9a-d).

OR10J5 [5] = target: T2, OR10J5; assay: LYRAL® dose-response with a steady concentration of test compound (EC50-fold shift); conditions: LYRAL® + steady concentration of compound vs LYRAL® alone
Protocol: as §1
(§3) LYRAL® enhancement specificity was tested on compounds that were structurally similar to enhancers identified. Dose response curves to LYRAL® were obtained in the presence of a steady concentration of a test compound and compared to a dose-response curve of LYRAL® alone. The resulting enhancement was quantified by means of EC50-fold shift (potency increase) and the efficacy span ratio (efficacy increase).
The EC50-fold shift was obtained by dividing the EC50 of LYRAL®+compound by the reference EC50 of LYRAL® alone. […]

Olfr16 = target: T3, Olfr16 (Mus musculus, UniProt Q62007); assay: as above; conditions: Olfr16 (mouse ortholog); LYRAL® + steady concentration of compound vs LYRAL® alone
T3 construct: expressed in transfected cells
T3 sequence (Q62007 1-309): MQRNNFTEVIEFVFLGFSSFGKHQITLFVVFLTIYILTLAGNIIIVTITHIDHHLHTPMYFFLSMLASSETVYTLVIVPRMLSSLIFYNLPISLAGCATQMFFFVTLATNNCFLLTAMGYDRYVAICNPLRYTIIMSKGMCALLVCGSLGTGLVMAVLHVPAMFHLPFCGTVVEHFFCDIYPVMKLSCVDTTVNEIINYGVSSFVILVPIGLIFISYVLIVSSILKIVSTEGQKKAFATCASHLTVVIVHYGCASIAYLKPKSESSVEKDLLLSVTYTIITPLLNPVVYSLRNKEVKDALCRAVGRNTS
Protocol: as §3
The EC50-fold shift was obtained by dividing the EC50 of LYRAL®+compound by the reference EC50 of LYRAL® alone. The span ratio was obtained by dividing the span of LYRAL®+compound by the reference span of LYRAL® alone.

[6] = target: T1, OR10J5 olfactory receptor; assay: Single-point binary mixture enhancement screen (LYRAL® at about EC20 + test compound), cAMP HTRF; conditions: binary mixture of 4.6 μM LYRAL® and 300 μM test compound, HEK293T
Protocol: A dose response curve showing the activation of OR10J5 in response to the floral muguet compound 3-(4-hydroxy-4-methylpentyl)cyclohex-3-ene-1-carbaldehyde, 4-(4-hydroxy-4-methylpentyl)cyclohex-3-ene-1-carbaldehyde or a mixture thereof (sold under the tradename LYRAL®, hereinafter referred to as “LYRAL®”) is shown in FIG. 1. Using a cell-based assay, OR10J5 activity was tested in a HEK293T cell line wherein the endogenous chaperone RTP1 gene has been activated and the odorant receptor chaperone was expressed according to the methods disclosed in International Patent Application Publication No. WO2016/201153 A1. […]
as §2, with “An activation cell-based assay was used for the initial enhancer candidate identification as disclosed in WO2019122236.” left out, “62AM4PEJ). […]” for “62AM4PEJ).”
The resulting activation was then measured and compared to LYRAL® alone (defining the baseline of the enhancement assay). The quality of the HTS process was determined and the window variability and signal reliability were assessed by calculating the Z′ value of each plate. […]

Molecule | enhancement of OR10J5 LYRAL® activation (true enhancer) [1] | also measured
3,5,6-Trimethyl-3-Cyclohexene-1-Carbaldehyde + 2,4,6-Trimethyl-3-Cyclohexene-1-Carbaldehyde | potent enhancement | 
CC(C)=CCCC(C)C=O (racemic) [2,6-dimethylhept-5-enal] | potent enhancement | α (cooperativity factor) (OR10J5 [2]): 4.1; Kb (OR10J5 [2]): 16 µM
Cc1ccc(CC(C)C=O)cc1 (racemic) [2-methyl-3-(4-methylphenyl)propanal] | potent enhancement | 
COC(C)(C)CCCC(C)C=O (racemic) [6-methoxy-2,6-dimethylheptanal] | potent enhancement | 
Cc1ccc2c(c1)CC(C)(CO)C2 (racemic) [(+−)-2,5-dimethyl-2-indanmethanol, reference compound] |  | agonist character at OR10J5 (OR10J5 [3]): partial agonist
CCOC(=O)C(=O)C(C)CC (racemic) [(+−)-ethyl 3-methyl-2-oxopentanoate] |  | inhibition of the OR10J5 response to LYRAL® [4]: decreased the response
CC1=CC(C)C(C=O)C(C)C1 (centres unmarked) [2,4,6-trimethyl-3-cyclohexene-1-carbaldehyde] | potent enhancement | 
CC(C=O)c1ccccc1 (centres unmarked) [2-phenylpropanal] | potent enhancement | 
Cc1cccc(C=O)c1 [3-methylbenzaldehyde] | potent enhancement | 
CC(C)c1ccc(C=O)cc1 [4-Propan-2-ylbenzaldehyde] | potent enhancement | 
CCc1ccc(C=O)cc1 [4-ethylbenzaldehyde] | potent enhancement | 
CCCc1ccc2c(c1)OCC(=O)CO2 [7-propyl-2H,4H-1,5-benzodioxepin-3-one] |  | inhibition of the OR10J5 response to LYRAL® [4]: decreased the response
CC(C)=CCC[C@@H](C)CC=O [(3R)-3,7-dimethyloct-6-enal] | potent enhancement | 
C/C=C/C=O [(E)-but-2-enal] | potent enhancement | 
CCCCCCC/C=C/C=O [(E)-dec-2-enal] | potent enhancement | 
CCCCCC/C=C/C=O [(E)-non-2-enal] | potent enhancement | 
C=C1CC[C@@H]2O[C@]2(C)CC[C@@H]2[C@@H]1CC2(C)C [(−)-(1R,4R,6S,10S)-4,12,12-trimethyl-9-methylene-5-oxatricyclo[8.2.0.0^4,6]dodecane] |  | inhibition of the OR10J5 response to LYRAL® [4]: decreased the response
O=Cc1ccccc1 [benzaldehyde] | potent enhancement | 
O=Cc1ccc2c(c1)OCO2 [benzo[d][1,3]dioxole-5-carbaldehyde, reference compound] |  | EC50 fold shift of LYRAL® (potency increase) (OR10J5 [5]): 1.8 fold; EC50 fold shift of LYRAL® (potency increase) (Olfr16): 1.5 fold; EC50 fold shift of (+−)-2,5-dimethyl-2-indanmethanol (OR10J5 [3]; OR10J5, agonist + steady concentration of compound vs agonist alone): 2.0 fold
C[C@@H]1C/C=C\CCCCCCCCCC(=O)C1 [compound 2] |  | OR10J5 olfactory receptor agonists among screen hits [6]: agonists
COC(=O)c1ccccc1/N=C/c1ccccc1 [compound 15] |  | OR10J5 olfactory receptor agonists among screen hits [6]: agonists
CCCCCCC=O [heptanal] | potent enhancement | α (cooperativity factor) (OR10J5 [2]): 3.2; Kb (OR10J5 [2]): 51 µM
CCCCCC=O [hexanal] | potent enhancement | 
CCCCCCCC=O [octanal] | potent enhancement | 
CC1=CCCC2(C)OC2CCC(C)=CCC1 (centres unmarked) [trimethyl-13-oxabicyclo-[10.1.0]-trideca-4,8-diene] |  | inhibition of the OR10J5 response to LYRAL® [4]: decreased the response
(+−)-3-(4-Methyl-3-penten-1-yl)-3-cyclohexene-1-carbaldehyde + (+−)-4-(4-Methyl-3-penten-1-yl)-3-cyclohexene-1-carbaldehyde | potent enhancement | 
